Drawing on patent US8901307B2, “Chemical compounds 251” (AstraZeneca AB, priority 2008, dated 2014), this text covers inhibition for 27 molecules.

For one assay, the target named is T1, human His-PIM1 [2-313] (Homo sapiens, UniProt P11309).
T1 construct: purified human His-PIM1 [2-313] enzyme; His (N); purchased University of Dundee, Scotland; host or cells: baculovirus system
Nature of the assay: PIM1 in-vitro mobility shift assay (Caliper LC3000, FL-Ahx-Bad phosphorylation). The class given is biochemical. To be noted: 1.5 h; percent inhibition at 0.3 uM compound; read-out: PIM1 % I at 0.3 uM. In outline:
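Compound preincubated 20 min at 25 °C with 2.4 nM PIM1, 3.6 µM FL-Ahx-Bad peptide and 240 µM ATP (1.2× mix concentrations). Reaction started with 24 mM MgCl2 mix, run 90 min at 25 °C, EDTA-stopped. Phospho/unphospho peptide separated by microfluidic mobility shift; percent inhibition from ratiometric turnover.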

The next assay deals with T2, human His-PIM2 [23-299] (Homo sapiens, UniProt Q9P1W9).
T2 construct: purified human His-PIM2 [23-299] enzyme; His (N); host or cells: E. coli
T2 sequence (Q9P1W9 23-299): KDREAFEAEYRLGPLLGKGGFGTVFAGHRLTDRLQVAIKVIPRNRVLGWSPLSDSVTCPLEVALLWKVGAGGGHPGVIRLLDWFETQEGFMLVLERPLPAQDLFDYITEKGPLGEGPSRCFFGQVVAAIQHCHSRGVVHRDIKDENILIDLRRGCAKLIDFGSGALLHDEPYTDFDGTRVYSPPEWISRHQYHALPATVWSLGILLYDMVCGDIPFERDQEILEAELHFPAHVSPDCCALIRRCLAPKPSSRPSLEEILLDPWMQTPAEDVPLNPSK
Nature of the assay: PIM2 in-vitro mobility shift assay (Caliper LC3000, FL-Ahx-Bad phosphorylation). The class given is biochemical. Particulars: 1.5 h; percent inhibition at 0.3 uM compound; read-out: PIM2 % I at 0.3 uM.

Molecules are shown by their SMILES. Counter-ions that a name gives are not always drawn. Some results are limits rather than exact numbers.

T1 sequence (P11309 2-313): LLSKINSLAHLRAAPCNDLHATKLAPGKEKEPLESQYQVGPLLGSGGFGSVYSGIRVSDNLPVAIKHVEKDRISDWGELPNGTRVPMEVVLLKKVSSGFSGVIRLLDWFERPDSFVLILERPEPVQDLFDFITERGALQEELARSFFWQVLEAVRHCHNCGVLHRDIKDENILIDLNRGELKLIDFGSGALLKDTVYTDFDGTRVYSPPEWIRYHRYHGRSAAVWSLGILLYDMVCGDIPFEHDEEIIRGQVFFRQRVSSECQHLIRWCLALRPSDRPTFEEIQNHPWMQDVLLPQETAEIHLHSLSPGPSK

As to `CN(C)C1CCN(c2ccccc2/C=C2\SC(=O)NC2=O)C1` (stereo not drawn) [Example 48, (5Z)-5-{2-[3-(dimethylamino)pyrrolidin-1-yl]benzylidene}-1,3-thiazolidine-2,4-dione], the figures for the inhibition at 0.3 µM at human His-PIM1 [2-313] and on human His-PIM2 [23-299] were 84.4% and 41.3%, respectively.
Regarding `Cn1ccc2ccc(/C=C3\SC(=O)NC3=O)cc21` [Example 75, (5Z)-5-[(1-methyl-1H-indol-6-yl)methylene]-1,3-thiazolidine-2,4-dione], the figures for the inhibition at 0.3 µM at human His-PIM1 [2-313] and at human His-PIM2 [23-299] were above 95% and 69.5%, respectively.
For `COc1cc(/C=C2\SC(=O)NC2=O)c(N2CC[C@@H](NC(=O)CCCCN)C2)cc1OC` [Example 119, (R,Z)-5-amino-N-(1-(2-((2,4-dioxothiazolidin-5-ylidene)methyl)-4,5-dimethoxyphenyl)pyrrolidin-3-yl)pentanamide hydrochloride], the inhibition at 0.3 µM at human His-PIM1 [2-313] amounted to 56.2%; at human His-PIM2 [23-299], 20.1%.
On to `N[C@H]1CCN(c2ccccc2/C=C2\SC(=O)NC2=O)C1` [Example 122X, (S,Z)-5-(2-(3-aminopyrrolidin-1-yl)benzylidene)thiazolidine-2,4-dione hydrochloride], for which the inhibition at 0.3 µM on human His-PIM1 [2-313] was above 95%; at human His-PIM2 [23-299], 67.1%.
With `O=C1NC(=O)/C(=C/c2ccccc2N2CCCNCC2)S1` [Example 106, (Z)-5-(2-(1,4-diazepan-1-yl)benzylidene)thiazolidine-2,4-dione hydrochloride], the inhibition at 0.3 µM on human His-PIM1 [2-313] was above 95%; at human His-PIM2 [23-299], 92.8%.
The corresponding values for `COc1ccc(N2CCC(N(C)C)C2)c(/C=C2\SC(=O)NC2=O)c1` (stereo not drawn) [Example 43, (5Z)-5-{2-[3-(dimethylamino)pyrrolidin-1-yl]-5-methoxybenzylidene}-1,3-thiazolidine-2,4-dione] are 55.4% and 14.7%.
For `NCCN1CCN(c2ccccc2/C=C2\SC(=O)NC2=O)CC1` [Example 112, (Z)-5-(2-(4-(2-aminoethyl)piperazin-1-yl)benzylidene)thiazolidine-2,4-dione hydrochloride], in that order: above 95% and above 95%.
On to `CC(C)CN1CCN(c2c(Cl)cc(C(F)(F)F)cc2/C=C2\SC(=O)NC2=O)CC1` [Example 12], for which the inhibition at 0.3 µM at human His-PIM1 [2-313] is 80.2%; at human His-PIM2 [23-299] it was below 5%.
Turning to `O=C1NC(=O)/C(=C/c2ccccc2N2CCCN(C(=O)C3CCCNC3)CC2)S1` (stereo not drawn) [Example 102, (Z)-5-(2-(4-(piperidine-3-carbonyl)-1,4-diazepan-1-yl)benzylidene)thiazolidine-2,4-dione hydrochloride], the inhibition at 0.3 µM is 93.3% on human His-PIM1 [2-313] and 91.9% at human His-PIM2 [23-299].
As for `N[C@H]1CN(c2c(Cl)cccc2/C=C2\SC(=O)NC2=O)CC[C@@H]1O` (racemic) [Example 122M, (±)-(Z)-5-(2,3-amino-4-hydroxypiperidin-1-yl)-3-chlorobenzylidene)thiazolidine-2,4-dione hydrochloride], the inhibition at 0.3 µM on human His-PIM1 [2-313] and at human His-PIM2 [23-299] was above 95% in each case.
As to `NC(=O)COc1cccc(/C=C2\SC(=O)NC2=O)c1` [Example 84C, (Z)-2-(3-((2,4-dioxothiazolidin-5-ylidene)methyl)phenoxy)acetamide], the inhibition at 0.3 µM worked out at 47.8% on human His-PIM1 [2-313] and 29.6% on human His-PIM2 [23-299].
Turning to `O=C1NC(=O)/C(=C/c2cccc(Cl)c2N2CCC[C@@H](NCCO)C2)S1` [Example 133], the inhibition at 0.3 µM on human His-PIM1 [2-313] was above 95%; on human His-PIM2 [23-299], 93.4%.
For `N#CCC(=O)N[C@H]1CCN(c2c(Cl)cccc2/C=C2\SC(=O)NC2=O)C1` [Example 146], the inhibition at 0.3 µM at human His-PIM1 [2-313] came to 88.9%; on human His-PIM2 [23-299], 48.5%.
In the case of `N[C@@H]1CCN(c2c(Cl)cccc2/C=C2\SC(=O)NC2=O)C1` [Example 122G, (R,Z)-5-(2-(3-aminopyrrolidin-1-yl)-3-chlorobenzylidene)thiazolidin-2,4-dione hydrochloride], the values for the inhibition at 0.3 µM at human His-PIM1 [2-313] and at human His-PIM2 [23-299] were above 95% and 92.1%, respectively.
As for `O=C1NC(=O)/C(=C/c2cc(C(F)(F)F)cc(Cl)c2N2CCC(CCO)CC2)S1` [Example 13], the inhibition at 0.3 µM at human His-PIM1 [2-313] and at human His-PIM2 [23-299] was below 5% in each case.
In the case of `O=C1NC(=O)/C(=C/c2ccc3[nH]ccc3c2)S1` [Example 78, (5Z)-5-(1H-indol-5-ylmethylene)-1,3-thiazolidine-2,4-dione], the inhibition at 0.3 µM on human His-PIM1 [2-313] came to 71.4%; at human His-PIM2 [23-299], 30%.
`O=C1NC(=O)/C(=C/c2ccncc2)S1` [Example 72, (Z)-5-(pyridin-4-ylmethylene)thiazolidine-2,4-dione]: the inhibition at 0.3 µM at human His-PIM1 [2-313] and at human His-PIM2 [23-299] was below 5% throughout.
For `COc1cc(/C=C2\SC(=O)NC2=O)c(N2CC[C@@H](N(C)C)C2)cc1OC` [Example 39, (R,Z)-5-(2-(3-(dimethylamino)pyrrrolidin-1-yl)-4,5-dimethoxybenzylidene)thiazolidine-2,4-dione], the inhibition at 0.3 µM was found to be 89.4% at human His-PIM1 [2-313] and 57.3% at human His-PIM2 [23-299].
Turning to `O=C1NC(=O)/C(=C/c2ccc[nH]c2=O)S1` [Example 70, (Z)-5-((2-oxo-1,2-dihydropyridin-3-yl)methylene)thiazolidine-2,4-dione], the inhibition at 0.3 µM at human His-PIM1 [2-313] and on human His-PIM2 [23-299] was below 5% throughout.
Take `COc1cc(/C=C2\SC(=O)NC2=O)c(-c2cccnc2)cc1OC` [Example 65, (Z)-5-(4,5-dimethoxy-2-(pyridin-3-yl)benzylidene)thiazolidine-2,4-dione]: the figures for the inhibition at 0.3 µM at human His-PIM1 [2-313] and at human His-PIM2 [23-299] were 45.3% and 18.9%, respectively.
As to `COc1cccc(/C=C2\SC(=O)NC2=O)c1N1CCC[C@@H](N)C1` [Example 122E, (R,Z)-5-(2-(3-aminopiperidin-1-yl)-3-methoxybenzylidene)thiazolidine-2,4-dione hydrochloride], the inhibition at 0.3 µM at human His-PIM1 [2-313] and on human His-PIM2 [23-299] was above 95% in each case.
On to `N[C@H]1CN(c2c(Cl)cccc2/C=C2\SC(=O)NC2=O)C[C@@H]1O` [Example 122T, (Z)-5-(2-((3S,4S)-3-amino-4-hydroxypyrrolidin-1-yl)-3-chlorobenzylidene)thiazolidine-2,4-dione hydrochloride], for which the inhibition at 0.3 µM on human His-PIM1 [2-313] and on human His-PIM2 [23-299] was above 95% each time.
For `CC(C)(C)N1CCN(c2c(Cl)cc(C(F)(F)F)cc2/C=C2\SC(=O)NC2=O)CC1` [Example 30], the inhibition at 0.3 µM on human His-PIM1 [2-313] is 90.8%; at human His-PIM2 [23-299], 15.6%.
With `O=C1NC(=O)/C(=C/c2cc(C(F)(F)F)cc(Cl)c2N2CCN(CCCO)CC2)S1` [Example 23], the inhibition at 0.3 µM at human His-PIM1 [2-313] turned out to be 87.6%; on human His-PIM2 [23-299], 19.7%.
As to `O=C1NC(=O)/C(=C/c2cccc(Cl)c2N2CCC[C@@H](NCCC(F)(F)F)C2)S1` [Example 149], the values for the inhibition at 0.3 µM on human His-PIM1 [2-313] and on human His-PIM2 [23-299] were above 95% and 75.4%, respectively.
For `COc1cccc(/C=C2\SC(=O)NC2=O)c1N1CC[C@H](N)C1` [Example 96, hydrochloride], in that order: above 95% and above 95%.
For `COc1cccc(/C=C2\SC(=O)NC2=O)c1N1CCNCC1` [Example 97, (Z)-5-(3-methoxy-2-(piperazin-1-yl)benzylidene)thiazolidine-2,4-dione hydrochloride], in that order: above 95% and 86.4%.
